Test results from ChEMBL document CHEMBL5465560, “Selectivity Literature for EUbOPEN Chemogenomic Library” (2024).

What was measured:
[1] = biological target: Dual specificity protein kinase CLK4 (Homo sapiens, UniProt Q9HAZ1); assay: Selectivity interaction (Enzymatic assay) EUB0001550a CLK4
[2] = biological target: Non-receptor tyrosine-protein kinase TYK2 (Homo sapiens, UniProt P29597); assay: Selectivity interaction (ActivX KiNativ screen (kinase selectivity in THP-1 cell lysates)) EUB0000639a TYK2; type: subcellular; details: lysate, at 0.01 µM
Non-receptor tyrosine-protein kinase TYK2, sequence (P29597 whole entry): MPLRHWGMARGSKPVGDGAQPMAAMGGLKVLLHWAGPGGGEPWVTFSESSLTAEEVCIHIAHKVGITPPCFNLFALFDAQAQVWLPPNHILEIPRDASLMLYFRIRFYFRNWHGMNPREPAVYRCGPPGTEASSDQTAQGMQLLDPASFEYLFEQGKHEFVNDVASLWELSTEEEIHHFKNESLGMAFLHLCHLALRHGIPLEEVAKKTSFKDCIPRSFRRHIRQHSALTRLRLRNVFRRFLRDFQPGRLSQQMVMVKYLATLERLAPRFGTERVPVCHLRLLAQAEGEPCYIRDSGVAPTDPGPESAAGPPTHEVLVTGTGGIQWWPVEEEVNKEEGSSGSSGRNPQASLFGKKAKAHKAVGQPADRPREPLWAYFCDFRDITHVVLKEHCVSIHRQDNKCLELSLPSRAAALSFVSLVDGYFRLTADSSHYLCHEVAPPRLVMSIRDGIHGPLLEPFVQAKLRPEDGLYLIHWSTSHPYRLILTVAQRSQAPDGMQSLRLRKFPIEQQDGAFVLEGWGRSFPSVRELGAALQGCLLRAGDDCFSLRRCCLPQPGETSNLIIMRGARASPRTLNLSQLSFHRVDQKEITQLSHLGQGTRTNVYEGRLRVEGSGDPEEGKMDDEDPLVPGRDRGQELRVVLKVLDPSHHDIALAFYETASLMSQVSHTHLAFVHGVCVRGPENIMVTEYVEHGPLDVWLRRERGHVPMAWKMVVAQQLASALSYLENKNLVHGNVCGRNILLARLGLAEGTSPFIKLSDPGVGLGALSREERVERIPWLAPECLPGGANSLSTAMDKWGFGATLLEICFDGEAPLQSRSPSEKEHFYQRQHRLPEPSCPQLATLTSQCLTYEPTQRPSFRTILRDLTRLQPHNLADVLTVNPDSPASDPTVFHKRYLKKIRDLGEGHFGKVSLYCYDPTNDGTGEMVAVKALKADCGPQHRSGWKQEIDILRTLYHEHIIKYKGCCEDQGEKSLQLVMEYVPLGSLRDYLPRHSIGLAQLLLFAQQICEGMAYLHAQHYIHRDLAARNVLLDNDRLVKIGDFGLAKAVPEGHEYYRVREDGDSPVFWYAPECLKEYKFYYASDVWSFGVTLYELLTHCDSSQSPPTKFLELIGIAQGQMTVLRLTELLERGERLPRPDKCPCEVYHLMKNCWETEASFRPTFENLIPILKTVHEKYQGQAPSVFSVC

[3] = biological target: T1, Serine/threonine-protein kinase ULK1 (Homo sapiens) (UniProt O75385); assay: Selectivity interaction (KinomeScan (DiscoverX)) EUB0000607a ULK1; details: at 10 µM
T1 sequence (whole entry): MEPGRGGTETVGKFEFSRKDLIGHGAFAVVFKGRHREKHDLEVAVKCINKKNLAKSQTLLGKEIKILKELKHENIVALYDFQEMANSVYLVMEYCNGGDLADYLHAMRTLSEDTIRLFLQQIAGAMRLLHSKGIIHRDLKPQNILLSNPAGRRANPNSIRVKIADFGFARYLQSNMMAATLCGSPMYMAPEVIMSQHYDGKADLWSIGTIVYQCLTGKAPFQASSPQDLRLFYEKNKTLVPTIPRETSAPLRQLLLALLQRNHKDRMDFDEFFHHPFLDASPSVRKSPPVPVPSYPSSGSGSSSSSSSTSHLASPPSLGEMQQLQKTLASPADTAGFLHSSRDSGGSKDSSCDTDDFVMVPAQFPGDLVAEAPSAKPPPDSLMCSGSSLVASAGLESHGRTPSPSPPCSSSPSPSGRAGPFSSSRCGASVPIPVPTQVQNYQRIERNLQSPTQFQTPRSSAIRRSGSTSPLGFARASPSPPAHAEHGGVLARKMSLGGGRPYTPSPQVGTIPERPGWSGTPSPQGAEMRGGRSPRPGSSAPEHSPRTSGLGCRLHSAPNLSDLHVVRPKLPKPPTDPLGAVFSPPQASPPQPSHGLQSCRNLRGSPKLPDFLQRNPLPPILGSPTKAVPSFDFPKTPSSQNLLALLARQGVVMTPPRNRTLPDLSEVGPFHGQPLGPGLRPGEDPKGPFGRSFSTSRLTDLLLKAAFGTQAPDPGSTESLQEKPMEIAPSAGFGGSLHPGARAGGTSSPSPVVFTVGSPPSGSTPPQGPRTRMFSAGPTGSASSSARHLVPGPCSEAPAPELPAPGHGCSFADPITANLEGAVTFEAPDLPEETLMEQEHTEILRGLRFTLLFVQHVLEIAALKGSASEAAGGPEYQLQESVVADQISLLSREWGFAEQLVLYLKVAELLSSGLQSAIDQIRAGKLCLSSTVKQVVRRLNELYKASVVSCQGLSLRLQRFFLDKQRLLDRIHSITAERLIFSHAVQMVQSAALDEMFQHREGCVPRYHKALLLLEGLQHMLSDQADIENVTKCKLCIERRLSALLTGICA

[4] = biological target: T2, Serine/threonine-protein kinase Nek9 (Homo sapiens) (UniProt Q8TD19); assay: Selectivity interaction (KinomeScan (DiscoverX)) EUB0001049a NEK9; details: at 1 µM
T2 sequence (whole entry): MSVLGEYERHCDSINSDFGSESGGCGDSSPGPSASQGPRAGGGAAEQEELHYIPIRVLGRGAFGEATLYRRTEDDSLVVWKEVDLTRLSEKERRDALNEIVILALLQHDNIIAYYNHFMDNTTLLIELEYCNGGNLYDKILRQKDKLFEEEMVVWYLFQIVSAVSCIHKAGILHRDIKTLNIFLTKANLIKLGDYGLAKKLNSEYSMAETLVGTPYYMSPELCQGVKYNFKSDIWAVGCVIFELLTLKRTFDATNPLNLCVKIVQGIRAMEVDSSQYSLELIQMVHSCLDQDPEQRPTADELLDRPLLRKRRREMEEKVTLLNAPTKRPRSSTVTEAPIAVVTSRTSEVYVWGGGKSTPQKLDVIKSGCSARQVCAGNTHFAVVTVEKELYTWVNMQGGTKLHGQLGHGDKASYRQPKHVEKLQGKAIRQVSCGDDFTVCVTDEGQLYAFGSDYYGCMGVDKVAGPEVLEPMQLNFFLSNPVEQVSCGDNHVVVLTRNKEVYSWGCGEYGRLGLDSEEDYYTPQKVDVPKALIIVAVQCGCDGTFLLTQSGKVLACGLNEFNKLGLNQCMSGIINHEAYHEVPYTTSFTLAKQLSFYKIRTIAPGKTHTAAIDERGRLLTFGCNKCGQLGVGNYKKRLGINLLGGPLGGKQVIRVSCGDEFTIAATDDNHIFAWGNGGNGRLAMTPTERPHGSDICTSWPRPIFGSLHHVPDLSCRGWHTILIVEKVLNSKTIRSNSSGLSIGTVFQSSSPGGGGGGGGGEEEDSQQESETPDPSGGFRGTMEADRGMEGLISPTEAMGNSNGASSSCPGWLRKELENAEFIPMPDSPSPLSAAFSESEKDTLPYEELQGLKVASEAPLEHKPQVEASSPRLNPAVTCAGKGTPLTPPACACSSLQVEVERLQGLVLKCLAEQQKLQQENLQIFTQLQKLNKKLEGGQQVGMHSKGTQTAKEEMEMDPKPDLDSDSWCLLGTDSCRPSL

[5] = biological target: T3, Interleukin-1 receptor-associated kinase 4 (Homo sapiens) (UniProt Q9NWZ3); assay: Selectivity interaction (ActivX KiNativ screen (ex vivo kinase selectivity in human PBMCs)) EUB0001619a IRAK4; type: cell-based; details: PBMC, at 1 µM
T3 sequence (whole entry): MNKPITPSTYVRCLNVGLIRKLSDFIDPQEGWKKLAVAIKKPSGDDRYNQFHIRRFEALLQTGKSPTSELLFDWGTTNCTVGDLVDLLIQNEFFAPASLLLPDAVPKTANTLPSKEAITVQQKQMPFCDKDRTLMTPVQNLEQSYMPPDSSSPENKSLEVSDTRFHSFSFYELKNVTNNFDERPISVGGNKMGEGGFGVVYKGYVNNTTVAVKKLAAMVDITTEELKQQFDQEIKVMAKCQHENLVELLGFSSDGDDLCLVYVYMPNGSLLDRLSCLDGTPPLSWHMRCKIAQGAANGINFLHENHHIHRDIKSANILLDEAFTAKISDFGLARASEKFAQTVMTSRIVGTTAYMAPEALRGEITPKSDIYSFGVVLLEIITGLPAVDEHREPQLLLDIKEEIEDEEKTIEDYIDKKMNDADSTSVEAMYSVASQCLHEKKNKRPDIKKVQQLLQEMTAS

Dual specificity protein kinase CLK4, sequence (Q9HAZ1 whole entry): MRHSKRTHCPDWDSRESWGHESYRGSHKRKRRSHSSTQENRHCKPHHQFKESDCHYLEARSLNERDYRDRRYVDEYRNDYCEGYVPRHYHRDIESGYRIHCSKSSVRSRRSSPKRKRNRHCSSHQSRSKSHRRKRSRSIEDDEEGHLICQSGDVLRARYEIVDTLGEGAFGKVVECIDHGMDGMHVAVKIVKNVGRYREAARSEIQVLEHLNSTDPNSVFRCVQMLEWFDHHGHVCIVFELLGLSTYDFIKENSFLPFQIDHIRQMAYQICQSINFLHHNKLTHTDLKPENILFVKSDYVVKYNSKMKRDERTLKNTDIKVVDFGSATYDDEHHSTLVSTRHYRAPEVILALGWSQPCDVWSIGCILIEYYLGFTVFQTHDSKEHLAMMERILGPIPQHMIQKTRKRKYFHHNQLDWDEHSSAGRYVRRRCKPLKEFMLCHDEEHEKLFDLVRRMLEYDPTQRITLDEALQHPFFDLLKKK

CN(C)CC#Cc1ccc2[nH]c3c(c2c1)-c1nc(N)ncc1CCC3
IC50 [1]: 0.44 µM

CC[C@@H]1[C@H](F)C(=O)N[C@@H]1COc1nccc2cc(C(N)=O)c(OC)cc12 [ZIMLOVISERTIB]
% of inhibition [2]: 18.9%

CNC(=O)Nc1ccc(-c2nc(N3CC4CCC(C3)O4)c3cnn(C4CCC5(CC4)OCCO5)c3n2)cc1
% of control [3]: 100%

COc1cc(Nc2nc(C)cc(-c3cnn4nc(OC)ccc34)n2)cc(C(F)(F)F)c1
% of control [4]: 94%

N#Cc1cccc(-c2c[nH]c3ncnc(N4CCOCC4)c23)c1
% of inhibition [5]: 11%
